Patent US8158575B2, “Agent for the prevention and treatment of sexually transmitted diseases-I” (priority 2001, dated 2012)

What was measured:
IIIB strain of HIV = type: cell-based, HIV-1; conditions: HeLa CD4 LTR […]-gal cells
Description: At 24 h media is removed and compound in media placed on the cells and incubated for 15 min at 37° C.

[1] = test system: human papillomavirus type 6b VLPs; test: Inhibition of uptake of HPV virus-like particles into A431 cells (flow cytometry); type: cell-based
Description: The compound was evaluated for its ability to inhibit the binding and uptake of human papillomavirus virus-like particles to a human epithelial cell line.
The compound was tested at a range of six dilutions as inhibitor of binding and of uptake of Papillomavirus fluorochrome-tagged Virus-Like-Particles (VLPs) of human papillomavirus type 6b. […] Assay of binding and uptake was determined using flow cytometry and inhibition of binding was reported as a percentage with respect to the binding observed in the absence of inhibitor. The tests were performed in two independent assays
Cells. The human epidermoid carcinoma cell line A431 was purchased from the American Type Culture Collection at passage 30 (CRL-1555, Batch F-13530) and maintained in DMEM in 10% FCS.
Human papillomavirus type 6b VLPs were grown and purified according to standard operating procedures. Particles were labelled with a fluorochrome.
The compound was re-dissolved in sterile water to the concentrations of 5 mM and used fresh for the first assay before being frozen at −20° C. It was then thawed for the second assay.
A T75 flask of A431 cells was washed with 10 ml of PBS/EDTA (0.05%) for 5 minutes at 37° C. before being treated with 2 ml trypsin for a further 5 minutes at 37° C. […]
Results were analysed using WinLisT. […]

Substance: BHAlyslys2lys4lys8lys16[NH—CO—CH2)O-3,6-Naphthyl-(SO3Na)2]32 [SPL-7013]
- Attachment Assay IC50 (IIIB strain of HIV): 0.57 µg/ml
- Uptake of VLPs at maximal inhibition (% of VLPs alone) ([1]; 1 μM, HPV 6b VLPs): 26%
- Uptake inhibition (in words) ([1]; at 1 μM and 10 nM): shown uptake inhibition
